Values quoted from earlier work in patent publication US20170112824A1, “COMBINATION THERAPIES FOR THE TREATMENT OF FUNGAL INFECTIONS” (priority 2015, published 2017).

Key:
[1] = in vivo

## NC(=O)NO [Hydroxyurea, hydroxyurea]
other
  water solubility: water-soluble
[1]
  absorption: readily absorbed
